Data on three compounds can be found in patent US9040519B2, “Fused tetracyclic pyrido [4,3-B] indole and pyrido [3,4-B] indole derivatives and methods of use” (Medivation Technologies, Inc., priority 2010, dated 2015).

Experiment [1] addresses T1, human recombinant adrenergic α2C receptor (Homo sapiens, UniProt P18825).
T1 construct: expressed in transfected cells; host or cells: insect Sf9 cells
T1 sequence (P18825 1-462): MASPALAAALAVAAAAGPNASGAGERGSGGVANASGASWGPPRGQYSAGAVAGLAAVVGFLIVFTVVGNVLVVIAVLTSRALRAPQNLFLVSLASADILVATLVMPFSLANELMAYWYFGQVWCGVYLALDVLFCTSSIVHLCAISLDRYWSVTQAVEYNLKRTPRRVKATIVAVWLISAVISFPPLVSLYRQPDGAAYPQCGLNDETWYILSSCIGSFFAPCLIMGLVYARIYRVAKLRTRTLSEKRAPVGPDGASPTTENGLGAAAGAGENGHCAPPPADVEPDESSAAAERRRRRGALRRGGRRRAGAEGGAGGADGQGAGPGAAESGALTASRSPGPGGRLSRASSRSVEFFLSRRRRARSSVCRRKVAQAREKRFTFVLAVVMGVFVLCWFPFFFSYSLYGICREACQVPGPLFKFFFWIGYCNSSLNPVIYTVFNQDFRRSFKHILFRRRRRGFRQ
Description: Adrenergic α2C radioligand binding ([3H]MK-912). The settings on record: compound at 0.1 μM; insect Sf9 cells; read-out: Percentage inhibition of ligand binding, Adrenergic α2C. On the procedure: To evaluate in radioligand binding assays the activity of compounds of the invention, human recombinant adrenergic α2C receptor expressed in insect Sf9 cells (Uhlen, S. et al, J. Pharmacol. Exp. Ther. 271:1558, 1994) in a modified Tris-HCl buffer (50 mM Tris-HCl, pH 7.4, 12.5 mM MgCl2, 2 mM EDTA) was used. Compounds of the invention were incubated with 1 nM [^3H]MK-912 for 60 min at 25° C. Non-specific binding was estimated in the presence of 10 μM WB-4101. Receptor proteins were filtered and washed, the filters were then counted to determine [^3H]MK-912 specifically bound. Compounds were screened at 1 μM or lower, using 1% DMSO as vehicle. Biochemical assay results are presented as the percent inhibition of specific binding in Table 3.

Experiment [2] deals with T2, human recombinant serotonin (5-Hydroxytryptamine) 5-HT6 receptor (Homo sapiens, UniProt P50406).
T2 construct: expressed in transfected cells; host or cells: HeLa
T2 sequence (P50406 whole entry): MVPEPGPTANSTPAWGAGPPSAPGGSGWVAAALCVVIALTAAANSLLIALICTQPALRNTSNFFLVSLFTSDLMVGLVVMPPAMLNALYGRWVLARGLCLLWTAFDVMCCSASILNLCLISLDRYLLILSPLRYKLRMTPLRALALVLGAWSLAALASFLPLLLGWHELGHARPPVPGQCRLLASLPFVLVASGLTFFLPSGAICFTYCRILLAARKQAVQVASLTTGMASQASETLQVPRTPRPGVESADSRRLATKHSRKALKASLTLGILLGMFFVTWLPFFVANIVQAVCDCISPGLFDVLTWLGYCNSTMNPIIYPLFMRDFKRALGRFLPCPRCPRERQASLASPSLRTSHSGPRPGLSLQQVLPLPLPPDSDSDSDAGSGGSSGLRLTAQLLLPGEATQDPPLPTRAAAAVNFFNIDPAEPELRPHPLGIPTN
Description: Serotonin 5-HT6 radioligand binding ([3H]LSD). The settings on record: compound at 0.1 μM; HeLa cells; read-out: Percentage inhibition of ligand binding, Serotonin 5-HT6. The protocol: To evaluate in radioligand binding assays the activity of compounds of the invention, human recombinant serotonin (5-Hydroxytryptamine) 5-HT6 receptor expressed in human HeLa cells (Monsma, F. Jr. et al, Mol. Pharmacol. 43:320, 1993) in a modified Tris-HCl buffer (50 mM Tris-HCl, pH 7.4, 150 mM NaCl, 2 mM Ascorbic Acid, 0.001% BSA) was used. Compounds of the invention were incubated with 1.5 nM [3H]Lysergic acid diethylamide (LSD) for 120 min at 37° C. Non-specific binding was estimated in the presence of 5 μM Serotonin (5-HT). Receptor proteins were filtered and washed, the filters were then counted to determine [3H]LSD specifically bound. Compounds were screened at 1 μM or lower, using 1% DMSO as vehicle. Biochemical assay results are presented as the percent inhibition of specific binding in Table 4.

Experiment [3] has as its target T3, human recombinant histamine H1 receptor (Homo sapiens, UniProt P35367).
T3 construct: expressed in transfected cells; host or cells: CHO-K1
Description: Histamine H1 radioligand binding ([3H]Pyrilamine). Conditions: compound at 0.1 μM; 1.2 nM [3H]Pyrilamine; CHO K1 cells; read-out: Histamine H1 Binding (0.1 μM), percentage inhibition. On the procedure: To evaluate in radioligand binding assays the activity of compounds of the invention, human recombinant histamine H1 receptor expressed in Chinese hamster ovary (CHO) K1 cells (De Backer, M. et al, Biochem. Biophys. Res. Comm. 197(3):1601, 1993) in a modified Tris-HCl buffer (50 mM Tris-HCl, pH 7.4, 2 mM MgCl2, 100 mM NaCl, 250 mM Sucrose) was used. Compounds of the invention were incubated with 1.2 nM [^3H]Pyrilamine for 180 min at 25° C. Non-specific binding was estimated in the presence of 1 μM Pyrilamine. Receptor proteins were filtered and washed, the filters were then counted to determine [^3H]Pyrilamine specifically bound. Compounds were screened at 1 μM or lower, using 1% DMSO as vehicle. Biochemical assay results are presented as the percent inhibition of specific binding in Table 2.

Experiment [4] addresses T4, human recombinant serotonin (5-Hydroxytryptamine) 5-HT2C receptor (Homo sapiens, UniProt P28335).
T4 construct: expressed in transfected cells; host or cells: CHO-K1
T4 sequence (P28335 33-458): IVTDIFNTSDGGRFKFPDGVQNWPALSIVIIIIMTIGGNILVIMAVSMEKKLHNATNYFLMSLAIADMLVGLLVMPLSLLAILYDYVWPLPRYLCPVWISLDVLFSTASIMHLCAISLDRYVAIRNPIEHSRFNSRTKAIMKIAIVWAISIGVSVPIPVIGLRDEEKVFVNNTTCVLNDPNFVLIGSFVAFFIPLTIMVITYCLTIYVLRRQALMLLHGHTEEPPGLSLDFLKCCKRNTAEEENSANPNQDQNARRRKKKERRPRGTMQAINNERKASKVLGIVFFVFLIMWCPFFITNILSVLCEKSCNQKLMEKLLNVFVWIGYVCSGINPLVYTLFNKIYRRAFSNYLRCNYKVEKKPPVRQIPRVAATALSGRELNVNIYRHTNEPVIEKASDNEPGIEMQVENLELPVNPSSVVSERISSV
The experiment in a line: Serotonin 5-HT2C radioligand binding ([3H]Mesulergine). Conditions: compound at 0.1 μM; CHO K1 cells; read-out: Percentage inhibition of ligand binding, Serotonin 5-HT2C. On the procedure:
To evaluate in radioligand binding assays the activity of compounds of the invention, human recombinant serotonin (5-Hydroxytryptamine) 5-HT2C receptor expressed in Chinese hamster ovary (CHO) K1 cells (Wolf, W. et al, J. Neurochem. 69:1449, 1997) in a modified Tris-HCl buffer (50 mM Tris-HCl, pH 7.4, 0.1% Ascorbic Acid, 10 μM Pargyline) was used. Compounds of the invention were incubated with 1 nM [^3H]Mesulergine for 60 min at 25° C. Non-specific binding was estimated in the presence of 1 μM Mianserin. Receptor proteins were filtered and washed, the filters were then counted to determine [^3H]Mesulergine specifically bound. Compounds were screened at 1 μM or lower, using 1% DMSO as vehicle. Biochemical assay results are presented as the percent inhibition of specific binding in Table 4.

T3 sequence (P35367 whole entry): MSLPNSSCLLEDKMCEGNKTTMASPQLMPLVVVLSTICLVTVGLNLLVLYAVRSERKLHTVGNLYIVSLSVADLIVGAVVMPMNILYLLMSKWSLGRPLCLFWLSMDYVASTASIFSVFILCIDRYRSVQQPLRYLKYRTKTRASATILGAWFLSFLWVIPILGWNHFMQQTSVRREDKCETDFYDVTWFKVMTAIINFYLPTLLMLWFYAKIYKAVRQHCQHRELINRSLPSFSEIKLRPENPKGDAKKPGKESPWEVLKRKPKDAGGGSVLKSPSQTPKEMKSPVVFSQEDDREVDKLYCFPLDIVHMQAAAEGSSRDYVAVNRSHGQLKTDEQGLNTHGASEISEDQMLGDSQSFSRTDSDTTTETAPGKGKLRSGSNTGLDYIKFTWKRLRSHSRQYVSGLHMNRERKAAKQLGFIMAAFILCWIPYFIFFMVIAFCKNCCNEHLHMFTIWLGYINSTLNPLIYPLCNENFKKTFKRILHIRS

As usually defined, the inhibition is the change of the read-out against control, counted positive when it falls. `Cc1ccc2c(c1)c1c3n2C(c2ccccc2)=CCC3(C)CN(C)C1` (stereo not drawn) [Compound 10, 2,3a,10-trimethyl-6-phenyl-2,3,3a,4-tetrahydro-1H-indolo[3,2,1-ij][1,6]naphthyridine]: the inhibition at 0.1 µM in experiment [1] stood at 2%; in experiment [2], 7%; in experiment [3], 3%; in experiment [4], 17%.

Take `Cc1ccc2c(c1)c1c3n2CC(c2ccncc2)=CCC3(C)CN(C)C1` (stereo not drawn) [Compound 11, 2,3a,10-trimethyl-6-pyridin-4-yl-1,2,3,3a,4,7-hexahydro-2,7a-diaza-cyclohepta[jk]fluorene]: the inhibition at 0.1 µM worked out at 1% in experiment [1], 5% in experiment [2], 2% in experiment [3] and 7% in experiment [4].

With `Cc1ccc2c(c1)c1c3n2C(c2ccccc2)CCC3(C)CN(C)C1` (stereo not drawn) [Compound 12, 2,3a,10-trimethyl-6-phenyl-2,3,3a,4,5,6-hexahydro-1H-indolo[3,2,1-ij][1,6]naphthyridine], the inhibition at 0.1 µM in experiment [1] was -3%; in experiment [2], 21%; in experiment [3] it was 20%; in experiment [4] it was 11%.
